Source: publication PMC10380841, “Synthesis, Characterization and Cytotoxic Evaluation of New Pyrrolo[1,2-b]pyridazines Obtained via Mesoionic Oxazolo-Pyridazinones” (International Journal of Molecular Sciences, 2023)
Like-named read-outs stand apart in the source and are kept apart here. Values belong to the compound of their own block, whether it stands above or below them.

Experiments:
[1] = test system: SK-OV-3 ovary adenocarcinoma cells; test: MTS cytotoxicity assay, SK-OV-3; assay type: cell-based, human; conditions: Homo sapiens
Procedure: (§1) Therefore, the precursor acids 2a–c and corresponding pyrrolo[1,2-b]pyridazines 5a–c,f were tested for their potential cytotoxic activity. During the assays, increasing concentrations of the compounds, ranging from […], were added for 24 h or 48 h to cancer LoVo, SK-OV-3, MCF-7, and the reference HUVEC cells, previously cultured for 24 h in 96-well flat bottom plates. […] Then, MTS reagent was added, and cells were incubated for 4 h at 37 °C in a 5% CO2 humidified atmosphere. The absorbance values were spectrophotometrically read to a Dynex ELISA reader at λ = […].
(§2) For the evaluation of the in vitro potential anti-proliferative effects of treatments with the new compounds under study against solid tumor-derived cells, several compound-mediated cytotoxicity assays were performed on three adherent tumor standardized cell lines, and normal human endothelial cells, used as control: the MCF-7 human breast adenocarcinoma and SK-OV-3 human ovary adenocarcinoma cell lines were provided from European Collection of Authenticated Cell Cultures (ECACC), while LoVo, human colorectal adenocarcinoma cell line, and HUVEC human umbilical vein endothelial cells were purchased from American Type Culture Collection (ATCC).
(§3) Adherent cells were cultivated in DMEM/F12 medium added with 2 mM L-glutamine and 10% fetal bovine serum, 100 units/mL penicillin, 100 µg/mL streptomycin (Sigma Aldrich, St. Louis, MO, USA) and incubated at 37 °C in 5% CO2 humidified atmosphere. The stock solutions for cell treatments were prepared by dissolving the synthesized compounds in a minimum amount of DMSO. Working dilutions were prepared from the stock solutions in culture medium before each treatment assay. After 24 h, when cell cultures achieved around 70% confluence, treatments were applied for various periods of time with different concentrations of synthesized compounds or oncolytic drugs, used as positive controls.
(§4) Therefore, cell cultures treated with the new compounds or oncolytic drugs for 24 h or 48 h were further subjected to a colorimetric cell viability method, the MTS assay. The absorbance of probes was read, data were calculated, and percentages of cell viability were assessed.
(§5) The evaluation of the compound-induced cytotoxicity was made using the CellTiter 96 Aqueous One Solution Cell Proliferation Assay (Promega, Madison, WI, USA), a reagent that contains both MTS (3-(4,5-dimethylthiazol-2-yl)-5-(3-carboxymethoxyphenyl)-2-(4-sulfophenyl)-2H-tetrazolium, inner salt) and PES ([…], a cationic dye with high chemical stability that binds to MTS and forms a stable solution).
(§6) Briefly, 1.5 × 10^4 cancer or normal cells were cultured in 100 µL/well for 24 h. After the culture supernatants were discarded, cells were treated for additional 24 h or 48 h with increasing concentrations of new compounds or oncolytic drugs. Following the specific treatments, in each well a volume of 20 µL of coloring mixture reagent of MTS and PES was added, and then the plates were incubated with mild agitation every 20 min for 4 h at 37 °C. The color developed during incubation was spectrophotometrically quantified at λ = 492 nm using a Dynex ELISA reader (DYNEX Technologies—MRS, Chantilly, VA, USA).
(§7) Data were expressed as percentages of cell viability of the treated cells, and were calculated and compared to the untreated cells (considered 100% viable), using the formula:Cell viability (%) = (T − B)/(U − B) × 100 where T = absorbance of treated cells, U = absorbance of untreated cells, and B = absorbance of culture medium (blank), for λ = 492 nm.
(§8) The cell viability data were expressed as the mean values ± standard deviations (SD) of three different experiments (n = 3). […] Moreover, a parallel experiment was performed in the absence of cells, with all the concentrations of the compounds being tested for their potential interference with MTS reagents; then, their absorbance values were extracted during calculations.

[2] = test system: MCF-7 breast adenocarcinoma cells; test: MTS cytotoxicity assay, MCF-7; assay type: cell-based, human; conditions: Homo sapiens, MCF7; for viability at 200 µM: MCF-7, 200 μM; for viability at 200 µM / viability at 400 µM / viability at 40 µM: read-out: cell viability; for viability at 400 µM: MCF-7, 400 μM; for viability at 40 µM: MCF-7, 40 μM
Procedure: as §1, §2, §3, §4
as §5, with “solution). The assay is based on the ability of the metabolically active cells to reduce the yellow tetrazolium salt MTS to a compound that is soluble in culture medium, the colored formazan, followed by the spectrophotometric evaluation of its concentration.” for “solution).”
as §6, §7
The cell viability data were expressed as the mean values ± standard deviations (SD) of three different experiments (n = 3). […]

Triticum aestivum L. = test: Triticum test, phytotoxicity (main root length); assay type: in vivo; conditions: Triticum aestivum, 72 h; Triticum root length, 10–1000 µM, measured over three days
Procedure: Phytobiological testing (Triticum test) was performed by the Constantinescu method which consists in determining the maximum active dilution of a compound. Depending on the duration of action, it can influence root elongation and the […] film. […] Embryonic wheat roots were obtained by germinating homogeneous wheat caryopses in Linhart pots. Then the caryopses with a main root length of 1 cm were placed in the test solutions. For the determination of the action of each compound, five dilutions in the concentration range of 10–1000 µM were obtained and 11 caryopses were placed in them. Petri dishes containing 15 mL of diluted solution were kept under constant conditions of temperature (25 °C), and humidity (60%), in the absence of light. […] The results were expressed in comparison with a 1% DMSO control.
Statistical analyses were performed using the computing and programming environment R, R, v. 4.2.1 [68], under Rstudio, v. 2022.07.2+576 “Spotted Wakerobin” for Windows (RStudio, PBC, Boston, 2022), both for the Triticum and Artemia tests. It used a parametric mixed-effects model (R package “lme4”) and a robust mixed-effects model (R package “robustlmm”), in which root length measurements (Triticum) from all three days were used as the dependent variable, whereas compound, concentration and time were treated as fixed effects, with time (day of measurement) also treated as a random effect. Assessing statistical significance for mixed-effects statistical models is controversial and complex, but as a pragmatic way of working, we have estimated p-values using the Kenward–Rogers approximation (R package “sjPlot”). A variety of R base functions and R packages were used to diagnose the regression models (“car” [72], “MASS” [73], and “gvlma” [74]). Mixed boxplot–dotplot plots were generated using the “ggplot2” package.
The “drc” R package was used to estimate IC50 values for the Triticum bioassay by nonlinear modeling. For Triticum, the relationship between root length and concentration was modeled using Weibull functions with 2, 3, or 4 parameters, depending on the data distribution, the models being selected from a range of several models with different functions and parameters, based on the Akaike’s information criterion (AIC).

[3] = test system: LoVo colon adenocarcinoma cells; test: MTS cytotoxicity assay, LoVo; assay type: cell-based; conditions: Homo sapiens, read-out: cell viability
[4] = test system: SK-OV-3 ovary adenocarcinoma cells; test: MTS cytotoxicity assay, SK-OV-3; assay type: cell-based; conditions: Homo sapiens, read-out: cell viability; for viability at 400 µM: SK-OV-3, 400 μM; for viability at 40 µM: SK-OV-3, 40 μM
[5] = test system: LoVo colon adenocarcinoma cells; test: MTS cytotoxicity assay, LoVo; assay type: cell-based, human; conditions: Homo sapiens
Procedure: as §1, §2, §3, §4, §5, §6, §7, §8

Daphnia magna Straus = test: Daphnia magna toxicity assay; assay type: in vivo; conditions: 48 h
Procedure: (§9) Young organisms of Daphnia magna were selected according to their size from a parthenogenetic culture maintained in an artificial medium for 24 h before the bioassay. The determination was conducted in tissue culture plates with 12 wells (Greiner Bio-One, Monroe, NC, USA), with 10 organisms in each well, and a final volume of 3 mL per sample [65, 66]. As a negative control, DMSO was used at a concentration of 1%. All compounds were tested at six different concentration levels, ranging from 12.5 to 500 μg/mL. All assessments were performed in duplicate.

[6] = Daphnia magna toxicity assay; assay type: in vivo; conditions: Daphnia magna, in vivo; 48 h
Procedure: as §9

[7] = test system: HUVEC human umbilical vein endothelial cells; test: MTS cytotoxicity assay, HUVEC normal cells; assay type: cell-based; conditions: for cytotoxic effect on HUVEC: 24 h
Procedure: as §1, §2, §3, §4, §5, §6, §7, §8

[8] = MTS cytotoxicity assay, HUVEC normal cells; assay type: cell-based, human; conditions: human, HUVEC human umbilical vein endothelial cells (normal cells), read-out: cell viability
Procedure: as §1, §2, §3, §4, §5, §6, §7, §8

Artemia nauplii = test system: Artemia nauplii; parameters: method as in PMID 16445096; conditions: at 24 and 48 h; cited from earlier work
[9] = SK-OV-3, 24 h, read-out: IC50 Sk-OV-3 24 h
[10] = SK-OV-3, 48 h, read-out: IC50 Sk-OV-3 48 h
[11] = MCF-7, 48 h, read-out: IC50 MCF-7 48 h
[12] = MCF-7, 24 h, read-out: IC50 MCF-7 24 h

- melting point: 56 to 58 °C
SMILES: CCOC(=O)C(CC)n1nc(-c2ccccc2)ccc1=O (stereo not shown) [Compound 1a, Ethyl 2-(6-oxo-3-phenylpyridazin-1-yl)butanoate]

- melting point: 59 to 61 °C
SMILES: CCOC(=O)C(CC)n1nc(-c2ccc(F)cc2)ccc1=O (stereo not shown) [Compound 1b, Ethyl 2-[6-oxo-3-(4-fluorophenyl)pyridazin-1-yl]butanoate]

- melting point: 49 to 51 °C
SMILES: CCOC(=O)C(CC)n1nc(-c2ccc(Cl)cc2)ccc1=O (stereo not shown) [Compound 1c, Ethyl 2-[6-oxo-3-(4-chlorophenyl)pyridazin-1-yl]butanoate]

SMILES: CCC(C(=O)O)n1nc(-c2ccccc2)ccc1=O (stereo not shown) [Compound 2a, 2-(6-Oxo-3-phenylpyridazin-1-yl)butanoic acid]
- IC50 [1, 9]: ≥ 400 µM
- IC50 [1, 10]: ≥ 400 µM
- viability at 200 µM ([2]; 48 h): 97%
- viability at 400 µM ([2]; 48 h): 94%
- IC50 [2, 11]: ≥ 400 µM
- IC50 (Triticum aestivum L.): 213 µM
- viability at 200 µM ([3]; 48 h): 82.9%
- viability at 400 µM ([3]; 24 h): 69.1%
- viability at 400 µM ([3]; 48 h): 60.8%
- viability at 400 µM ([4]; 24 h): 89.3%
- viability at 400 µM ([4]; 48 h): 85.1%
- IC50 ([5]; 24 h, read-out: IC50 LoVo 24 h): ≥ 400 µM
- IC50 ([5]; 48 h, read-out: IC50 LoVo 48 h): ≥ 400 µM
- toxicity on Daphnia magna (Daphnia magna Straus): moderate toxicity
- LC50 at 48 h [6]: 521 µM

SMILES: O=c1[nH]cc(F)c(=O)[nH]1 [Compound 5-FU, 5-fluorouracil, reference compound]
- viability at 200 µM ([2]; 24 h): 45.5%
- viability at 200 µM ([2]; 48 h (drug control)): 18.2%
- IC50 [2, 12]: 80.6 ± 4.39 µM
- IC50 [2, 11]: 60.4 ± 5.04 µM
- cell viability ([7]; 200 μM, 48 h): no significant effect
- cytotoxic effect on HUVEC [7]: no remarkable cytotoxic effects
- viability at 200 µM ([3]; 24 h): 42.3%
- viability at 200 µM ([3]; 48 h): 28.7%
- IC50 ([5]; 24 h, read-out: IC50 LoVo 24 h): 76.1 ± 3.09 µM
- IC50 ([5]; 48 h, read-out: IC50 LoVo 48 h): 66.2 ± 2.66 µM

- melting point: 99 to 101 °C
SMILES: CCOC(=O)c1cc(CC)n2nc(-c3ccccc3)ccc12 [Compound 5d, Ethyl 7-ethyl-2-phenylpyrrolo[1,2-b]pyridazine-5-carboxylate]

SMILES: CCOC(=O)c1cc(CC)n2nc(-c3ccc(Cl)cc3)ccc12 [Compound 5f, Ethyl 2-(4-chlorophenyl)-7-ethylpyrrolo[1,2-b]pyridazine-5-carboxylate]
- IC50 [1, 9]: ≥ 400 µM
- IC50 [1, 10]: ≥ 400 µM
- viability at 200 µM ([2]; 48 h): 97%
- viability at 400 µM ([2]; 48 h): 94%
- IC50 [2, 11]: ≥ 400 µM
- viability at 24 h, 400 µM ([8]; 400 μM, 24 h): 90%
- viability at 48 h, 400 µM ([8]; 400 μM, 48 h): 91.6%
- viability at 400 µM ([3]; 24 h): 78.2%
- viability at 400 µM ([3]; 48 h): 41.8%
- viability at 400 µM ([4]; 48 h): 83%
- IC50 ([5]; 24 h, read-out: IC50 LoVo 24 h): ≥ 400 µM
- IC50 ([5]; 48 h, read-out: IC50 LoVo 48 h): 353 ± 4.1 µM
- toxicity on Daphnia magna (Daphnia magna Straus): moderate toxicity
- LC50 at 48 h [6]: 428 µM

SMILES: COc1cccc2c1C(=O)c1c(O)c3c(c(O)c1C2=O)C[C@@](O)(C(=O)CO)C[C@@H]3O[C@H]1C[C@H](N)[C@H](O)[C@H](C)O1 [DOX, doxorubicin, reference compound]
- IC50 [1, 9]: 55.4 ± 2.98 µM
- IC50 [1, 10]: 12.1 ± 0.32 µM
- viability at 40 µM ([2]; 24 h): 41.8%
- viability at 40 µM ([2]; 48 h): 36.7%
- IC50 [2, 12]: 14.8 ± 4 µM
- IC50 [2, 11]: 11.6 ± 0.53 µM
- cytotoxic effect on HUVEC [7]: no remarkable cytotoxic effects
- viability at 48 h, 40 µM ([8]; 40 μM, 48 h): 81.7%
- viability at 40 µM ([4]; 24 h): 68.6%
- viability at 40 µM ([4]; 48 h): 35.2%

SMILES: O=c1n(Cl)c(=O)n(Cl)c(=O)n1Cl [TCIC, trichloroisocyanuric acid]
- LC50 (Artemia nauplii): < 1 µM

SMILES: OC[P+](CO)(CO)CO [THPC, tetrakis(hydroxymethyl) phosphonium chloride]
- LC50 (Artemia nauplii): < 1 µM
